From ChEMBL document CHEMBL1201862, “PubChem BioAssay data set” (2004) come the findings set out here.

Some test systems named below: CAKI-1; CCRF-CEM; HCT-116; HCT-15; HL-60; HOP-92; IGROV-1; KM12; LOX IMVI; NCI/ADR-RES; OVCAR-4; OVCAR-8; RPMI-8226; RXF 393; SF-268; SF-295; SK-MEL-28; SNB-19; SNB-75; TK-10.
Common to all, as to experiment: NCI anticancer screen, dose series, 48 h

SMILES strings stand for the structures.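 Tested at 5 concentrations; 48 h exposure; 96-well plates; endpoints linearly interpolated, else capped at highest concentration. The concentration for 50% growth inhibition is given as GI50.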 Calls of active or inactive are those of the source. Rule as the data show it: active = GI50 up to about 1.1 µM and inactive = higher. A value given as a limit tells only on which side of the number the result lay.

Regarding `CC(C)(C)c1nc2c(o1)/C(=N\c1ccc(F)cc1)c1ccccc1C2=O`, the GI50 in the experiment with CAKI-1 was 50.9 µM (inactive); in the experiment on CCRF-CEM, > 100 µM (inactive); in the experiment on HCT-116, 5.12 µM (inactive); with HCT-15 it was 5.19 µM; in the experiment on HL-60, > 28.6 µM (inactive); in the experiment on HOP-92, > 72.3 µM (inactive). In addition, the GI50 in the experiment with IGROV-1 is 14.9 µM (inactive); in the experiment on KM12 it was 7.78 µM (inactive); with LOX IMVI, 2.56 µM (inactive); with NCI/ADR-RES it was 6.73 µM (inactive); in the experiment on OVCAR-4, 28.8 µM (inactive); in the experiment with OVCAR-8 it was 7.21 µM (inactive). In addition, the GI50 was 26.9 µM (inactive) in the experiment with RPMI-8226; 9.79 µM (inactive) with RXF 393; 10.6 µM (inactive) in the experiment with SF-268; 6.1 µM (inactive) with SF-295; 10.9 µM (inactive) in the experiment with SK-MEL-28; 8.24 µM (inactive) with SNB-19. The GI50 in the experiment with SNB-75 was 6.79 µM (inactive); in the experiment with TK-10, 35.7 µM (inactive).

In the case of `NC(CO)C(=O)NCC(=O)O` (stereo not given), the GI50 is > 100 µM (inactive) in the experiment on CAKI-1; > 100 µM (inactive) in the experiment on CCRF-CEM; > 100 µM (inactive) in the experiment with HCT-116; over 100 µM with HCT-15; > 100 µM (inactive) in the experiment on HL-60; > 100 µM (inactive) in the experiment with HOP-92. Further, the GI50 in the experiment on IGROV-1, with KM12, in the experiment with LOX IMVI, in the experiment with NCI/ADR-RES, in the experiment on OVCAR-4 and with OVCAR-8 was > 100 µM (inactive) throughout. The GI50 in the experiment on RPMI-8226, with RXF 393, in the experiment with SF-268, in the experiment on SF-295, with SK-MEL-28 and in the experiment with SNB-19 was > 100 µM (inactive) in each case. For the same molecule, the GI50 in the experiment with SNB-75 and with TK-10 was > 100 µM (inactive) each time.

Turning to `[O-]/[N+](=N/c1ncc(-c2ccccc2)cn1)c1ncc(-c2ccccc2)cn1`, the GI50 with CAKI-1 is > 100 µM (inactive); in the experiment on CCRF-CEM, 34.4 µM (inactive); in the experiment with HCT-116, 31.6 µM (inactive); in the experiment with HCT-15 it was 36.4 µM; in the experiment with HL-60 it was 39.1 µM (inactive); in the experiment with HOP-92, 69 µM (inactive). Moreover, the GI50 is 29.9 µM (inactive) in the experiment on IGROV-1; 67.6 µM (inactive) in the experiment on KM12; 43.4 µM (inactive) with LOX IMVI; 62.1 µM (inactive) in the experiment with NCI/ADR-RES; 54.6 µM (inactive) in the experiment with OVCAR-4; > 96.6 µM (inactive) in the experiment on OVCAR-8. Further, the GI50 with RPMI-8226 was > 64.6 µM (inactive); in the experiment with RXF 393, 60.5 µM (inactive); in the experiment with SF-268 it was > 84.7 µM (inactive); in the experiment with SF-295, 73.5 µM (inactive); in the experiment with SK-MEL-28, > 61.9 µM (inactive); with SNB-19, > 58.3 µM (inactive). For the same molecule, the GI50 in the experiment on SNB-75 and in the experiment on TK-10 was > 100 µM (inactive) throughout.

In the case of `Nc1ncnc2c1ncn2C1C=C(CO)C(O)C1O` (stereo not given), the GI50 was 13.1 µM (inactive) with CAKI-1; 0.305 µM (active) in the experiment with CCRF-CEM; 0.0509 µM (active) in the experiment on HCT-116; 0.468 µM in the experiment with HCT-15; 0.34 µM (active) in the experiment with HL-60; 7.55 µM (inactive) in the experiment with HOP-92. For the same molecule, the GI50 was 7.74 µM (inactive) in the experiment with IGROV-1; 0.264 µM (active) with KM12; 3 µM (inactive) in the experiment with LOX IMVI; 5.61 µM (inactive) with NCI/ADR-RES; 6.24 µM (inactive) in the experiment on OVCAR-4; 3.75 µM (inactive) with OVCAR-8. Besides, the GI50 in the experiment with RPMI-8226 is 0.256 µM (active); in the experiment on RXF 393, 9.59 µM (inactive); in the experiment with SF-268, 10.1 µM (inactive); in the experiment with SF-295, 24.5 µM (inactive); in the experiment with SK-MEL-28 it was 1.23 µM (inactive); in the experiment on SNB-19 it was 16 µM (inactive). In addition, the GI50 in the experiment on SNB-75 is 7.55 µM (inactive); with TK-10, 6.64 µM (inactive).

For `O=C(O)CNCCc1ccccc1`, the GI50 in the experiment with CAKI-1 was > 100 µM (inactive); in the experiment on CCRF-CEM, > 100 µM (inactive); in the experiment on HCT-116, > 100 µM (inactive); with HCT-15, over 100 µM; with HL-60 it was > 100 µM (inactive); in the experiment on HOP-92, > 100 µM (inactive). The GI50 in the experiment on IGROV-1, in the experiment with KM12, in the experiment with LOX IMVI, in the experiment with NCI/ADR-RES, in the experiment on OVCAR-4 and with OVCAR-8 was > 100 µM (inactive) throughout. For the same molecule, the GI50 in the experiment with RPMI-8226, in the experiment on RXF 393, in the experiment on SF-268, in the experiment on SF-295, in the experiment with SK-MEL-28 and in the experiment on SNB-19 was > 100 µM (inactive) throughout. Also, the GI50 in the experiment on SNB-75 and with TK-10 was > 100 µM (inactive) each time.

Consider `O=C(O)CCS/C(=C\C(SCCC(=O)O)c1ccc(Cl)cc1)c1ccc(Cl)cc1` (stereo not given), for which the GI50 in the experiment on CAKI-1 was 37.2 µM (inactive); in the experiment with CCRF-CEM, 30.1 µM (inactive); with HCT-116, 21.4 µM (inactive); with HCT-15, 30.8 µM; with HL-60 it was 36.7 µM (inactive); with HOP-92 it was 25.8 µM (inactive). Also, the GI50 was 38.8 µM (inactive) in the experiment on IGROV-1; 25.6 µM (inactive) in the experiment with KM12; 25.5 µM (inactive) in the experiment on LOX IMVI; > 100 µM (inactive) in the experiment on NCI/ADR-RES; 41.2 µM (inactive) in the experiment on OVCAR-4; 53.5 µM (inactive) in the experiment with OVCAR-8. For the same molecule, the GI50 in the experiment with RPMI-8226 was 31 µM (inactive); in the experiment on RXF 393, 39.7 µM (inactive); with SF-268, 50 µM (inactive); in the experiment on SF-295, 33.4 µM (inactive); in the experiment on SK-MEL-28, 45.1 µM (inactive); in the experiment on SNB-19 it was 40.7 µM (inactive). Also, the GI50 was 78.3 µM (inactive) with SNB-75 and 80.7 µM (inactive) in the experiment with TK-10.

As for `CC[C@@H]1CC[C@@H]2[C@H](CC[C@]3(C)[C@@H](OC(C)=O)CC[C@@H]23)[C@H]1COC(C)=O`, the GI50 in the experiment on CAKI-1 was 29 µM (inactive); with CCRF-CEM it was 20 µM (inactive); in the experiment on HCT-116, 16.5 µM (inactive); in the experiment with HCT-15 it was 23.9 µM; in the experiment with HL-60, 20.7 µM (inactive); in the experiment on HOP-92, 29 µM (inactive). Further, the GI50 in the experiment on IGROV-1 was 32.7 µM (inactive); in the experiment on KM12 it was 24.3 µM (inactive); in the experiment with LOX IMVI, 17.4 µM (inactive); with NCI/ADR-RES, 26.7 µM (inactive); in the experiment on OVCAR-4, 22.5 µM (inactive); in the experiment with OVCAR-8 it was 23 µM (inactive). Moreover, the GI50 was 25.6 µM (inactive) with RPMI-8226; 22.6 µM (inactive) with RXF 393; 21.6 µM (inactive) with SF-268; 25.2 µM (inactive) in the experiment with SF-295; 30.8 µM (inactive) in the experiment on SK-MEL-28; 36.9 µM (inactive) in the experiment with SNB-19. Also, the GI50 in the experiment on SNB-75 is 40.6 µM (inactive); with TK-10, > 100 µM (inactive).

With `CN(C)/C=C/c1nnnn1-c1ccc(I)cc1`, the GI50 in the experiment on CAKI-1 was 22.3 µM (inactive); in the experiment on CCRF-CEM, 10.6 µM (inactive); in the experiment with HCT-116, 10.5 µM (inactive); in the experiment with HCT-15, 13.5 µM; with HL-60, 6.21 µM (inactive); with HOP-92 it was 14.2 µM (inactive). Also, the GI50 is 15.6 µM (inactive) in the experiment with IGROV-1; 18.5 µM (inactive) in the experiment on KM12; 16.6 µM (inactive) in the experiment on LOX IMVI; 23.8 µM (inactive) in the experiment on NCI/ADR-RES; 20.5 µM (inactive) in the experiment on OVCAR-4; 19.5 µM (inactive) in the experiment with OVCAR-8. Besides, the GI50 with RPMI-8226 is 12.8 µM (inactive); in the experiment with RXF 393, 28 µM (inactive); in the experiment on SF-268 it was 17.5 µM (inactive); with SF-295 it was 25.8 µM (inactive); in the experiment with SK-MEL-28, 26.7 µM (inactive); in the experiment with SNB-19 it was 20.3 µM (inactive). In addition, the results for the GI50 in the experiment with SNB-75 and in the experiment on TK-10 were 11.1 µM (inactive) and 30.5 µM (inactive), respectively.

Regarding `CCCCCC(/C=C/[C@@H]1CC(=O)C[C@H]1O[Si](C)(C)C(C)(C)C)OCOCCOC` (stereo not given in full), the GI50 is 3.07 µM (inactive) in the experiment with CAKI-1; > 100 µM (inactive) in the experiment with CCRF-CEM; 2.99 µM (inactive) with HCT-116; 3.86 µM with HCT-15; > 100 µM (inactive) in the experiment with HL-60; 1.97 µM (inactive) in the experiment on HOP-92. Moreover, the GI50 with IGROV-1 was 3.24 µM (inactive); in the experiment with KM12 it was 3 µM (inactive); with LOX IMVI it was 2.7 µM (inactive); in the experiment on NCI/ADR-RES, 2.94 µM (inactive); with OVCAR-4 it was 5.56 µM (inactive); with OVCAR-8, 4.23 µM (inactive). For the same molecule, the GI50 in the experiment on RPMI-8226 is 2.61 µM (inactive); with RXF 393 it was 2.24 µM (inactive); with SF-268, 2.98 µM (inactive); in the experiment on SF-295, 11 µM (inactive); in the experiment on SK-MEL-28 it was 3.08 µM (inactive); with SNB-19 it was 4.52 µM (inactive). Further, the GI50 was 2.19 µM (inactive) in the experiment with SNB-75 and 12.9 µM (inactive) with TK-10.

Regarding `Cc1nc2cc(/N=N/c3c(C)noc3C)ccc2[nH]1`, the GI50 in the experiment on CAKI-1 is 18.9 µM (inactive); in the experiment on CCRF-CEM it was 25.2 µM (inactive); in the experiment on HCT-116 it was 18.3 µM (inactive); with HCT-15 it was 27.2 µM; with HL-60, 13.1 µM (inactive); with HOP-92 it was 14.9 µM (inactive). For the same molecule, the GI50 was 12.6 µM (inactive) in the experiment on IGROV-1; 49.8 µM (inactive) in the experiment with KM12; 16.6 µM (inactive) in the experiment with LOX IMVI; 28.1 µM (inactive) in the experiment with NCI/ADR-RES; 64.7 µM (inactive) in the experiment with OVCAR-4; 24.5 µM (inactive) with OVCAR-8. In addition, the GI50 in the experiment with RPMI-8226 is 17.9 µM (inactive); with RXF 393, 16.3 µM (inactive); in the experiment with SF-268 it was 26.6 µM (inactive); in the experiment on SF-295 it was 23.4 µM (inactive); with SK-MEL-28, 17.6 µM (inactive); in the experiment with SNB-19, 43.9 µM (inactive). The GI50 with SNB-75 is 5.28 µM (inactive); in the experiment with TK-10, 22.9 µM (inactive).
